Results: publication PMC9370394, “New Monocyclic Terpenoid Lactones from a Brown Algae Sargassum macrocarpum as Monoamine Oxidase Inhibitors” (Plants, 2022)

Molecular target: T1, human monoamine oxidase A (hMAO-A) (Homo sapiens, UniProt P21397)
T1 construct: gene MAOA
T1 sequence (P21397 1-527): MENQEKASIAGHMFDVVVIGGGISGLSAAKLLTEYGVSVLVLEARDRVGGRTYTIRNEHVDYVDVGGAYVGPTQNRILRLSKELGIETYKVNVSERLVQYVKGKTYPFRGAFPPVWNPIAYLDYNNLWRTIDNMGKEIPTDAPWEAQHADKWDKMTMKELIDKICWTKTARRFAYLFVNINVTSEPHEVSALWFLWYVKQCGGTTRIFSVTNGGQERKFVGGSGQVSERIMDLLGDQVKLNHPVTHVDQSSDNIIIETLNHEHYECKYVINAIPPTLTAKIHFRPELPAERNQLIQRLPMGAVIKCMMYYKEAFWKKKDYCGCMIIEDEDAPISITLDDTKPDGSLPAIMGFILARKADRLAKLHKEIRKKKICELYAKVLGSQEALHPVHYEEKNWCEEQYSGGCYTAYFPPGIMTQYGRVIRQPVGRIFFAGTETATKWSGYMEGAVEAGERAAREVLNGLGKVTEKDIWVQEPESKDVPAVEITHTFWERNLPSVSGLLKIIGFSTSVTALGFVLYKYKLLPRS
Assay: MAO-Glo luminescence enzyme assay, single concentration of […]
Format: biochemical

Work on CC(=O)CC/C=C1/CC[C@H](C(C)(C)O)OC1=O [compound 1, 6R-(2-hydroxypropan-2-yl)-3Z-(4-oxopentylidene)tetrahydro-2H-pyran-2-one] yielded an inhibition at 200 µM of 42.2 ± 2.68%.
